Source: publication PMC5354814, “In silico and in vitro drug screening identifies new therapeutic approaches for Ewing sarcoma” (Oncotarget, 2016)

Experiments:
CHLA-258 = assay: Hits validation, dose-response cell proliferation (CellTiter-Glo); type: cell-based; conditions: 12-point dose-response 50 μmol/L to 1 nmol/L, mean ± SD
Method: (§1) For hits validation and combination study, cells were harvested and aliquoted into 384-well plates at concentrations of 750–1,500 cells per well in a total of 20 μl/well using a Matrix Wellmate (Thermo Scientific). Five μl of culture media containing either vehicles or drug were added to each well the next day (drug concentrations range from 1 nmol/L to 50 μmol/L). For combination study, selected drugs were archived in robotically accessible plates, to which media was added in preparation for addition to master plates by a Nimbus 96 liquid-dispensing workstation (Hamilton). Liquid transfers to dilution and assay plates were handled using the same workstation. Each 384-well master plate contained four 9 by 9 dose-matrix blocks, with eight serial two-fold dilutions (concentrations range from 7.8 nmol/L to 1 μmol/L). Additional wells were reserved for untreated, and vehicle-treated control wells. Cell proliferation was evaluated using Cell-Titer Glo® reagents (Promega). IC50 values were determined for each drug using SigmaPlot (Systat Software). The combination index values were calculated using SigmaPlot (Systat Software) and CompuSyn.

TC-71 = assay: as above; type: cell-based; conditions: 12-point dose-response 50 μmol/L to 1 nmol/L, mean ± SD
Method: as §1

A673 = assay: as above; type: cell-based; conditions: 12-point dose-response 50 μmol/L to 1 nmol/L, mean ± SD
Method: as §1

COG-E-352 = assay: as above; type: cell-based; conditions: 12-point dose-response 50 μmol/L to 1 nmol/L, mean ± SD
Method: as §1

Hs 822.T. = assay: as above; type: cell-based; conditions: control cell line, 12-point dose-response, mean ± SD
Method: as §1

RD-ES = assay: as above; type: cell-based; conditions: 12-point dose-response 50 μmol/L to 1 nmol/L, mean ± SD
Method: as §1

Hs 863.T. = assay: as above; type: cell-based; conditions: control cell line, 12-point dose-response, mean ± SD
Method: as §1

SK-ES-1 = assay: as above; type: cell-based; conditions: 12-point dose-response 50 μmol/L to 1 nmol/L, mean ± SD
Method: as §1

Hs 919.T. = assay: as above; type: cell-based; conditions: control cell line, 12-point dose-response, mean ± SD
Method: These drugs were chosen based on their known mechanisms and safety profiles. We also tested the synergy between these drug hits (Supplementary Figures S6–S11). […] We evaluated the anti-proliferation effect in combination treatments using the EWS and control cell lines.
as §1

EWS cell lines = assay: Combination study (dose matrix, CellTiter-Glo, combination index); type: cell-based
Method: Next, the predicted and library screened drugs were extensively validated. The in vitro activities of each drug hit were evaluated in an expanded panel of EWS cell lines (either the EWS/FLI1 or the EWS/ERG fusion) (Table 1) and confirmed employing 12-point dose-response curves ranging from 50 μmol/L to 1 nmol/L, with triplicate sampling (Table 3). As mentioned above, one of the most notable drug hits discovered through both the in silico and in vitro drug screening approaches was auranofin. Based on this finding, we subsequently screened auranofin against six other marketed or investigational anticancer drug hits (carfilzomib, elesclomol, bortezomib, geldanamycin, AUY922, and ganetespib, Supplementary Figures S1–S5 and Figure 2). These drugs were chosen based on their known mechanisms and safety profiles. […] We evaluated the anti-proliferation effect in combination treatments using the EWS and control cell lines. […]
For hits validation and combination study, cells were harvested and aliquoted into 384-well plates at concentrations of 750–1,500 cells per well in a total of 20 μl/well using a Matrix Wellmate (Thermo Scientific). […] Cell proliferation was evaluated using Cell-Titer Glo® reagents (Promega). IC50 values were determined for each drug using SigmaPlot (Systat Software). The combination index values were calculated using SigmaPlot (Systat Software) and CompuSyn.

[1] = 24-month study in rats; auranofin 1.0 or 2.5 mg/kg/day orally; gold sodium thiomalate 2 or 6 mg/kg twice weekly; cited from earlier work

SMILES	IC50 (CHLA-258) [nM]	IC50 (TC-71; TC-71) [nM]	IC50 (A673; Homo sapiens, A673) [nM]	IC50 (COG-E-352) [nM]	IC50 (Hs 822.T.) [nM]	IC50 (RD-ES; RD-ES) [nM]	IC50 (Hs 863.T.) [nM]	IC50 (SK-ES-1; Homo sapiens, SK-ES1) [nM]	IC50 (Hs 919.T.) [nM]	synergy in combination with auranofin (EWS cell lines)	frequency of renal tubular cell karyomegaly and cytomegaly and renal adenoma [1]	IC50 (TC-71) [nM]	IC50 (A673) [nM]	IC50 (RD-ES) [nM]	IC50 (SK-ES-1) [nM]
CCC(C)(C)C(=O)O[C@H]1C[C@@H](C)C=C2C=C[C@H](C)[C@H](CC[C@@H]3C[C@@H](O)CC(=O)O3)[C@H]21 [Simvastatin]	250 ± 130	4330 ± 3860	580 ± 50	10500 ± 1700	2080 ± 840	3250 ± 140	4100 ± 560	3860 ± 890	2880 ± 580	–	–	–	–	–	–
CCNC(=O)c1noc(-c2cc(C(C)C)c(O)cc2O)c1-c1ccc(CN2CCOCC2)cc1 [AUY922]	< 3	< 3	20 ± 2	< 3	> 20000	9 ± 1	> 20000	30 ± 2	> 20000	highly synergistic	–	–	–	–	–
CN(C)CCOC(=O)COc1ccc(Cl)cc1 [Meclofenoxate]	> 50000	> 50000	> 50000	> 50000	> 50000	> 50000	> 50000	> 50000	> 50000	–	–	–	–	–	–
COc1cccc2c1C(=O)c1c(O)c3c(c(O)c1C2=O)C[C@@](O)(C(C)=O)C[C@@H]3O[C@H]1C[C@H](N)[C@H](O)[C@H](C)O1 [Daunorubicin]	< 3	4.6 ± 0.4	50 ± 20	< 3	150 ± 120	50 ± 30	180 ± 80	40 ± 30	420 ± 150	–	–	–	–	–	–
O=C([O-])CC([S-])C(=O)[O-].[Au+].[Na+].[Na+] (centres unmarked) [gold sodium thiomalate]	–	–	–	–	–	–	–	–	–	–	significant incr ease	–	–	–	–
CC(=O)[C@H]1CC[C@H]2[C@@H]3CCC4=CC(=O)CC[C@]4(C)[C@H]3CC[C@]12C [Progesterone]	11500 ± 5310	> 50000	> 50000	24900 ± 5850	> 50000	> 50000	> 50000	> 50000	> 50000	–	–	–	–	–	–
COC1=C2C[C@@H](C)C[C@H](OC)[C@H](O)[C@@H](C)/C=C(\C)[C@H](OC(N)=O)[C@@H](OC)/C=C\C=C(/C)C(=O)NC(=CC1=O)C2=O [Geldanamycin]	< 3	< 3	1930 ± 50	< 3	> 20000	50 ± 3	> 20000	30 ± 2	> 20000	–	–	–	–	–	–
c1coc(CNc2ncnc3[nH]cnc23)c1 [Kinetin]	> 50000	> 50000	> 50000	> 50000	> 50000	> 50000	> 50000	> 50000	> 50000	–	–	–	–	–	–
CN1C[C@H](CO)C=C2c3cccc4[nH]cc(c34)C[C@H]21 [Lysergol]	> 50000	–	–	> 50000	> 50000	–	> 50000	–	> 50000	–	–	> 50000	> 50000	> 50000	> 50000
COc1c2ccoc2nc2c(OC)c(OCC(O)C(C)(C)O)ccc12 (centres unmarked) [Evoxine]	> 50000	> 50000	> 50000	> 50000	> 50000	> 50000	> 50000	> 50000	> 50000	–	–	–	–	–	–
CC(C)C[C@H](NC(=O)[C@H](Cc1ccccc1)NC(=O)c1cnccn1)B(O)O [Bortezomib]	7	5 ± 8.1	10 ± 3	5	450 ± 80	10 ± 1	180 ± 30	20 ± 2	170 ± 3	–	–	–	–	–	–
COc1cc(NC(C)CCCN)c2ncccc2c1 (centres unmarked) [Primaquine]	7140 ± 2210	14300 ± 3710	32500 ± 6580	13300 ± 4090	> 25000	> 25000	> 25000	> 25000	> 50000	–	–	–	–	–	–
Nc1ccccc1NC(=O)c1ccc(CNC(=O)OCc2cccnc2)cc1 [MS275]	150 ± 30	1530 ± 490	2500 ± 1020	1470 ± 540	> 25000	2000 ± 850	> 25000	2400 ± 1010	> 50000	–	–	–	–	–	–
COc1ccc(C[C@H]2NC[C@H](O)[C@H]2OC(C)=O)cc1 [Anisomycin]	80 ± 10	–	–	20 ± 10	150 ± 50	–	200 ± 10	–	150 ± 20	–	–	40 ± 10	120 ± 10	150 ± 20	200 ± 10
CC1=CC(=O)c2ccccc2C1=O [Menadione]	3640 ± 2080	2940 ± 3480	6800 ± 1350	5620 ± 1310	12200 ± 2120	10600 ± 3200	14200 ± 3200	5560 ± 1240	15800 ± 2350	–	–	–	–	–	–
C[n+]1cc2c3c(ccc2c2ccc4cc5c(cc4c21)OCO5)OCO3 [Sanguinarine]	950 ± 310	200 ± 80	750 ± 140	1050 ± 180	1550 ± 260	1500 ± 120	1250 ± 140	1870 ± 510	1440 ± 320	–	–	–	–	–	–
CC[C@]1(O)C[C@@H]2CN(CCc3c([nH]c4ccccc34)[C@@](C(=O)OC)(c3cc4c(cc3OC)N(C)[C@H]3[C@@](O)(C(N)=O)[C@H](O)[C@]5(CC)C=CCN6CC[C@]43[C@@H]65)C2)C1 [Vindesine]	< 3	< 3	< 3	< 3	250 ± 10	< 3	280 ± 10	< 3	4580 ± 450	–	–	–	–	–	–
COc1cc2nc(N(C)CCCNC(=O)C3CCCO3)nc(N)c2cc1OC (centres unmarked) [Alfuzosin]	> 50000	> 50000	> 50000	> 50000	> 50000	> 50000	> 50000	> 50000	> 50000	–	–	–	–	–	–
